Values joined by “and” are separate entries in the source; they are usually repeats but may differ in a detail not shown here. Equal entries are not always repeated.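 96-well plates; 48 h exposure; 5 concentrations. Endpoints by linear interpolation between flanking doses. Not reached: highest tested concentration assigned. GI50 marks 50% less growth. TGI denotes the concentration required for complete inhibition of growth.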
Columns and labels:
Test in all cases: inhibition of tumour cell growth, NCI panel, 48 h
MDA-N = system: MDA-N
SF-295 CNS = system: SF-295 CNS
786-0 renal = system: 786-0 renal
A549 NSCLC = system: A549 NSCLC
M14 melanoma = system: M14 melanoma
SF-268 CNS = system: SF-268 CNS
SK-OV-3 ovarian = system: SK-OV-3 ovarian
TK-10 renal = system: TK-10 renal
NCI-H522 lung = system: NCI-H522 lung
RXF 393 renal = system: RXF 393 renal
MOLT-4 leukemia = system: MOLT-4 leukemia
NCI-H226 lung = system: NCI-H226 lung
UACC-62 melanoma = system: UACC-62 melanoma
HS 578T breast = system: HS 578T breast
COLO 205 colon = system: COLO 205 colon

Compound | TGI (MDA-N) [µM] | TGI (SF-295 CNS) [µM] | TGI (786-0 renal) [µM] | TGI (A549 NSCLC) [µM] | TGI (M14 melanoma) [µM] | TGI (SF-268 CNS) [µM] | TGI (SK-OV-3 ovarian) [µM] | TGI (TK-10 renal) [µM] | TGI (NCI-H522 lung) | TGI (RXF 393 renal) [µM] | TGI (MOLT-4 leukemia) [µM] | TGI (NCI-H226 lung) [µM] | TGI (UACC-62 melanoma) [µM] | TGI (HS 578T breast) [µM] | TGI (COLO 205 colon) [µM] | GI50 (UACC-62 melanoma)
COC(=O)C(=O)C(C(=O)C(=O)Nc1ccccc1C(C)=O)c1nc2ccc(C(=O)c3ccccc3)cc2[nH]c1=O (stereo not given) | > 100 | > 100 | > 100 | > 100 | > 100 | > 100 | > 100 | > 100 | > 100 µM | > 100 | > 100 | > 100 | > 100 | > 100 |  | 
Cc1ccc(SCC(CF)OCn2cc(F)c(=O)[nH]c2=O)cc1 (stereo not given) | > 100 | > 100 | > 100 | > 100 | > 100 | > 100 | > 100 | > 100 | > 100 µM | > 100 | > 100 |  |  | > 100 |  | 
NC1=NN(c2ccccc2)C2(O)c3ccncc3C3=NN(c4ccccc4)C(=O)C132 (stereo not given) | > 100 | > 100 | > 100 | > 100 | > 100 | > 100 | > 100 |  | > 100 µM | > 100 | > 100 | > 100 | > 100 | > 100 | > 100 | 
Cc1cccc(C)c1NC(=S)NC=C(C(N)=O)C(N)=O | > 100 | > 100 | > 100 | > 100 | > 100 | > 100 | > 100 | > 100 | > 100 µM | > 100 | > 100 | > 100 | > 100 | > 100 | > 100 | 
O=C1c2c(ccc3c2CCC3)CC12Cc1cc3c(cc1C2)CCC3 | > 100 | > 100 | > 100 | > 100 | > 100 | > 100 | > 100 | > 100 | > 100 µM | > 100 | > 100 | > 100 |  | > 100 | > 100 | 
N#CC(Nc1ccccc1)c1ccc(C(C#N)Nc2ccccc2)cc1 (stereo not given) | > 100 | > 100 | > 100 | > 100 | > 100 | > 100 | > 100 | > 100 | > 100 µM | > 100 | > 100 | > 100 | > 100 | > 100 | > 100 | 
COc1ccc2cc(/C=N\NC(=O)Nc3cccc4ccccc34)ccc2c1 | > 100 |  | 25.5 | > 100 | > 100 | > 100 |  | 56.5 | > 100 µM | > 100 | > 100 | > 100 |  | 94.6 | > 100 | 
C=C(Br)CN(C(C)=O)C1CCCCC1 | > 100 | > 100 | > 100 | > 100 | > 100 | > 100 | > 100 | > 100 | > 100 µM | > 100 | > 100 | > 100 | > 100 | > 100 | > 100 | 
CCCCCCCCC/C=C1\CC(CO)(COC(=O)C2CCCCC2)OC1=O (stereo not given) | 38.8 | 34.1 | 32.1 | 48.3 | 55.9 | 46.7 | 70.8 | 49.8 | 34.6 µM | 38.7 | 57.6 | 74.4 | 46.9 | 41 | 30.9 | 
Cc1occc1C(=S)Nc1ccc(Cl)c(/C=N/OC(C)C)c1 | 45 | 41.9 | 43.8 | 54.2 | 57.9 | > 62.2 | > 56.7 | 55.8 | 28.5 µM | 56.4 | > 57.6 | 37.6 | 29.2 | 67.9 | 37 | 
COC(=O)c1ccccc1/C=C1\Cc2cc(C)cc(C)c2C1=O | > 100 | > 100 | > 100 | > 100 |  | > 100 |  | > 100 | > 100 µM | > 100 | > 100 | > 100 | > 100 | > 100 |  | 
COc1cc(Nc2cnc3cc(F)c(F)cc3n2)cc(OC)c1 | > 100 | > 100 | > 100 | > 100 | > 100 | > 100 | 79.1 | > 100 | 42.4 µM | 51.2 | > 100 | > 100 | > 100 | > 100 | > 100 | 
CC(=O)OCC1OC(N2C(C)=C(C(C)=O)C(c3ccco3)C(C#N)=C2S)C(OC(C)=O)C(OC(C)=O)C1OC(C)=O (stereo not given) | > 100 | > 100 | > 100 | > 100 | > 100 | > 100 |  | > 100 | > 100 µM | > 100 | > 100 | > 100 | > 100 | > 100 | > 100 | 
CN(C)C(=O)Nc1cc2c3c(c1)CCCN3CCC2 | > 10 | > 10 | > 10 | > 10 | > 10 | > 10 | > 10 | > 10 | > 10 µM | > 10 | > 10 | > 10 | > 10 | > 10 | > 10 | 
CCOC(=O)c1c(-c2ccc(O)c(OC)c2)c(C#N)c(=S)n(C2OC(COC(C)=O)C(OC(C)=O)C(OC(C)=O)C2OC(C)=O)c1-c1ccccc1 (stereo not given) | > 100 | > 100 | > 100 | > 100 | > 100 | > 100 |  |  | 51.3 µM and 54.4 µM | > 100 | > 100 |  | > 100 | > 100 | > 100 | 45.4 µM and > 100 µM
O=C(O)c1ccc2c(c1)CC1(C2)Cc2ccccc2C1=O (stereo not given) | > 100 | > 100 | > 100 | > 100 | > 100 | > 100 | > 100 | > 100 | > 100 µM | > 100 | > 100 | > 100 | > 100 | > 100 | > 100 | 
